Publication PMC12766724, “Synthesis, Anthelmintic Activity, and Mechanism of Action of 5‑Aryl‑1H‑indoles” (Journal of Agricultural and Food Chemistry, 2025)
Like-named read-outs stand apart in the source and are kept apart here.

What was measured:
C. elegans N2 wild-type = experiment: Chitinase assay (reproductive capacity); assay type: in vivo, Caenorhabditis elegans
Experimental: (§1) The effect of compounds on C. elegans was evaluated using the Chitinase assay as we described previously.
After exposing L1 larvae to the compounds for 4 days, we observed the populations under a microscope and measured the Chitinase activity. The larvae produce the enzyme while hatching, and its activity is indicative of the reproductive capacity of the worms. Populations that fail to reproduce due to acute or reproductive toxicity or developmental abnormalities are detected.

[1] = test system: C. elegans CB211 lev-1(e211) IV.; experiment: Chitinase assay (reproductive capacity); assay type: in vivo; conditions: Caenorhabditis elegans; levamisole-resistant strain
Experimental: (§2) C. elegans strains used in this study were N2 (wild-type), levamisole-resistant strains ZZ15 (lev-8(x15) X) and […] (lev-1(e211) IV), ivermectin-resistant strain DA1316 (avr-14(ad1305) I; avr-15(vu227) glc-1(pk54) V), mebendazole-resistant strain […] (ben-1(e1880) III), and three strains with mutations in succinate dehydrogenase, RP2699, RP2700, and RP2702. The worms were cultivated on Nematode Growth Medium agar plates seeded with Escherichia coli OP50 in 20 °C according to the standard cultivation protocols. Strains RP2699, RP2700, and RP2702 were generated by Prof. Peter Roy’s group. All other strains and bacteria were purchased from the Caenorhabditis Genetics Center (CGC, Minneapolis, MN).
as §1
(§3) Lastly, strain DA1316 has mutations in three genes encoding subunits of the glutamate-gated chloride channel and is highly resistant to avermectins.

[2] = test system: C. elegans CB3474 ben-1(e1880) III.; experiment: Chitinase assay (reproductive capacity); assay type: in vivo; conditions: Caenorhabditis elegans; mebendazole-resistant strain
Experimental: as §2, §1, §3

[3] = test system: C. elegans DA1316 avr-14(ad1305) I; avr-15(vu227) glc-1(pk54) V.; experiment: Chitinase assay (reproductive capacity); assay type: in vivo; conditions: Caenorhabditis elegans; ivermectin-resistant strain
Experimental: as §2, §1, §3

[4] = test system: C. elegans ZZ15 lev-8(x15) X.; experiment: Chitinase assay (reproductive capacity); assay type: in vivo; conditions: Caenorhabditis elegans; levamisole-resistant strain
Experimental: as §2, §1, §3

[5] = test system: age unsynchronized Ditylenchus destructor; experiment: Motility on WMicrotracker ONE; assay type: in vivo
Experimental: Populations of D. destructor, kindly provided by Central Institute for Supervising and Testing in Agriculture, the Ministry of Agriculture of the Czech Republic, were maintained according to the protocol previously described here.
(§4) The effect of compounds on motility of H. contortus, D. destructor, and H. schachtii was evaluated using the WMicrotracker ONE platform according to previously published protocols. ,
(§5) The instrument evaluates the activity of small animals by counting how many times infrared light microbeams passing through the wells of a microtiter plate are interrupted. In age-unsynchronized populations of D. destructor, we observed reduced motility of worm populations treated with the halogenated derivatives i-19, i-20, and i-21 (Figures A, S2.1A, S2.2A and Table S2.1). […] The decreases in mean activity counts after 72 h of treatment at 100 μM were 85% and 97%, respectively.

[6] = test system: Heterodera schachtii second-stage juveniles (J2); experiment: Motility on WMicrotracker ONE; assay type: in vivo
Experimental: H. schachtii was maintained on mustard (Sinapsis alba cv. Albatros) roots grown in vitro on modified KNOP medium according to the previously published protocols. ,
as §4, §5

[7] = test system: Arabidopsis thaliana Col-0; experiment: Germination rate and phytotoxicity; assay type: in vivo; conditions: for average fraction of germinated seeds: 5 DPS; for main root length / plant weight: 10 DPS
Experimental: Wild-type A. thaliana (Col-0 ecotype) seeds were sterilized with 70% EtOH with 0.1% Tween-20 solution (2 × 1 mL) for 10 min, rinsed with 96% EtOH (1 × 1 mL) for 10 min, and kept in the fridge (4 °C in the dark). Seeds were sown on a sterile 1/2 MS medium supplemented with 0.3% DMSO as a mock and test compounds at 5, 10, 50, and 100 μM concentrations in 0.3% DMSO. Plates were kept in long-day light conditions (22 °C/20 °C, 16 h light/8 h dark, 100 μmol m^–2 s^–1). After 5 days, the germination rate was evaluated. After an additional 5 days, primary root growth was measured with ImageJ software (https://imagej.nih.gov/ij/), and seedlings were weighted.

Skin fibroblasts (BJ) = experiment: Resazurin assay, 3-day treatment; assay type: cell-based, human; conditions: BJ
Experimental: Skin fibroblasts (BJ) were obtained from the American Type Culture Collection (ATCC, Manassas, VA), while human keratinocytes (HaCaT) were sourced from the German Cancer Research Center in Heidelberg, Germany. Cells were cultured in a standard DMEM medium from Sigma-Aldrich, supplemented with 10% fetal bovine serum, 2 mM glutamine, 100 U/mL penicillin, and 100 μg/mL streptomycin. Cultures were maintained under standard conditions (37 °C, 5% CO2, humidified atmosphere) and subcultured two to three times per week. We assessed the effect of 3-day compound treatments on cell viability using a resazurin reduction assay measuring mitochondrial activity. Approximately 5,000 cells in 80 μL of culture medium were seeded into the wells of a 96-well plate. Twenty-four hours later, 20 μL of 5-fold concentrated test compound solutions was added and tested across three concentrations prepared through 2-fold serial dilutions. The highest final concentration was 40 μM. After 72 h, we added an 11-fold concentrated resazurin solution to the wells, achieving a final concentration of 0.0125 μM. Fluorescence (ex = 570 nm, em = 610 nm) was measured after 3 h of incubation. […]

[8] = test system: human keratinocytes (HaCaT); experiment: Resazurin assay, 3-day treatment; assay type: cell-based
Experimental: Skin fibroblasts (BJ) were obtained from the American Type Culture Collection (ATCC, Manassas, VA), while human keratinocytes (HaCaT) were sourced from the German Cancer Research Center in Heidelberg, Germany. Cells were cultured in a standard DMEM medium from Sigma-Aldrich, supplemented with 10% fetal bovine serum, 2 mM glutamine, 100 U/mL penicillin, and 100 μg/mL streptomycin. Cultures were maintained under standard conditions (37 °C, 5% CO2, humidified atmosphere) and subcultured two to three times per week. We assessed the effect of 3-day compound treatments on cell viability using a resazurin reduction assay measuring mitochondrial activity. Approximately 5,000 cells in 80 μL of culture medium were seeded into the wells of a 96-well plate. Twenty-four hours later, 20 μL of 5-fold concentrated test compound solutions was added and tested across three concentrations prepared through 2-fold serial dilutions. The highest final concentration was 40 μM. After 72 h, we added an 11-fold concentrated resazurin solution to the wells, achieving a final concentration of 0.0125 μM. Fluorescence (ex = 570 nm, em = 610 nm) was measured after 3 h of incubation.
The disubstituted derivatives i-25 and i-27 were the most toxic in the set, causing around a 50% decrease in viability of HaCaT cells at 40 μM.

C. elegans N2 = experiment: Scoring of developmental rates, L1 exposed 5 days; assay type: in vivo, Caenorhabditis elegans; parameters: key: 1 = dead/arrested at L1 … 5 = healthy, normal reproduction; conditions: 1 µM (control)
Source text: (§6) Dead or mostly immobile worms, arrested at the L1 stage, received a score of 1. Populations with severely delayed development were scored as 2. More developmentally advanced, but still obviously delayed worms were given the score of 3. Adult worms that produce a noticeably lower number of progeny received a score of 4. Healthy worms that reproduce normally (i.e., hundreds of eggs and larvae are present) were scored as 5 (see Figure C for representative images). In a typical, correctly prepared experiment, vehicle-treated populations should receive a score of 5, while worms treated with ivermectin (positive control) should receive a score of 1. […]

[9] = test system: C. elegans complex II mutant RP2699; experiment: Scoring of developmental rates, L1 exposed 5 days; assay type: in vivo, Caenorhabditis elegans; conditions: 1 µM (control)
Source text: as §6

[10] = test system: C. elegans complex II mutant RP2700; experiment: Scoring of developmental rates, L1 exposed 5 days; assay type: in vivo, Caenorhabditis elegans; conditions: 1 µM (control)
Source text: as §6

[11] = test system: C. elegans complex II mutant RP2702; experiment: Scoring of developmental rates, L1 exposed 5 days; assay type: in vivo, Caenorhabditis elegans; conditions: 1 µM (control)
Source text: as §6

[12] = 10 µM group, initial (prior to the treatment)
[13] = 50 µM group, initial (prior to the treatment)
[14] = 100 µM group, initial (prior to the treatment)

For `CC(C)Oc1cccc(-c2ccc3[nH]ccc3c2)c1` [i-15], the IC50 (C. elegans N2 wild-type) was 7.93 ± 0.66 µM, the IC50 (C. elegans N2 wild-type; Caenorhabditis elegans) was < 10 µM and the IC50 [1] was 8.86 ± 0.9 µM. The IC50 [2] was 10.2 ± 0.51 µM, the IC50 [3] was 9.1 ± 2.21 µM and the IC50 [4] was 8.55 ± 1.04 µM. It also gave an average activity counts [5, 12] of 224, an average activity counts ([5]; 10 µM, 48 h) of 201 and an average activity counts ([5]; 10 µM, 72 h) of 224. For the same molecule, the average activity counts [5, 13] was 226, the average activity counts ([5]; 50 µM, 48 h) was 198 and the average activity counts ([5]; 50 µM, 72 h) was 218. The average activity counts [5, 14] was 217, the average activity counts ([5]; 100 µM, 48 h) was 199 and the average activity counts ([5]; 100 µM, 72 h) was 206. For the same molecule, the average activity counts [6, 12] was 169, the average activity counts ([6]; 10 µM, 48 h) was 191 and the average activity counts ([6]; 10 µM, 72 h) was 164. For the same molecule, the average activity counts [6, 13] was 188, the average activity counts ([6]; 50 µM, 48 h) was 193 and the average activity counts ([6]; 50 µM, 72 h) was 144. For the same molecule, the average activity counts [6, 14] was 195, the average activity counts ([6]; 100 µM, 48 h) was 212 and the average activity counts ([6]; 100 µM, 72 h) was 175. The “average fraction of germinated seeds” value ([7]; 5 µM) was 0.98, the main root length ([7]; 5 µM) was 36.67 mm and the plant weight ([7]; 5 µM) was 35.21 mg. The “average fraction of germinated seeds” value ([7]; 10 µM) was 0.93, the main root length ([7]; 10 µM) was 36.13 mm and the plant weight ([7]; 10 µM) was 31.55 mg. The “average fraction of germinated seeds” value ([7]; 50 µM) was 0.95, the main root length ([7]; 50 µM) was 35.01 mm and the plant weight ([7]; 50 µM) was 29.94 mg. For the same molecule, the “Average viability (signal intensity relative to control)” value (Skin fibroblasts (BJ); 10 µM) was 1 ± 0.03, the “Average viability (signal intensity relative to control)” value (Skin fibroblasts (BJ); 20 µM) was 1.03 ± 0.04 and the “Average viability (signal intensity relative to control)” value (Skin fibroblasts (BJ); 40 µM) was 0.98 ± 0.05. For the same molecule, the “Average viability (signal intensity relative to control)” value ([8]; 10 µM) was 1.01 ± 0.04, the “Average viability (signal intensity relative to control)” value ([8]; 20 µM) was 1.04 ± 0.05 and the “Average viability (signal intensity relative to control)” value ([8]; 40 µM) was 1.01 ± 0.05.
With `CC(C)Oc1ccc(-c2ccc3[nH]ccc3c2)cc1` [i-16] the IC50 (C. elegans N2 wild-type; Caenorhabditis elegans) was 15.2 ± 0.89 µM.
In the case of `Oc1cc(-c2ccc3[nH]ccc3c2)ccc1Cl` [i-24], the IC50 (C. elegans N2 wild-type; Caenorhabditis elegans) is reported as 25 to 50 µM.
For `CC[C@H](C)[C@H]1O[C@]2(CC[C@@H]1C)C[C@@H]1C[C@@H](C/C=C(\C)[C@@H](O[C@H]3C[C@H](OC)[C@@H](O[C@H]4C[C@H](OC)[C@@H](O)[C@H](C)O4)[C@H](C)O3)[C@@H](C)/C=C/C=C3\CO[C@@H]4[C@H](O)C(C)=C[C@@H](C(=O)O1)[C@]34O)O2` [ivermectin, reference compound], the “mean score (1-5)” value (C. elegans N2) was 1, the “mean score (1-5)” value [9] was 1.333 and the “mean score (1-5)” value [10] was 1. The “mean score (1-5)” value [11] was 1.
